The results in this text go back to paper PMC3809102 (Current cancer drug targets, 2010).

In experiment [1] the target is Ku70 (Homo sapiens, UniProt P12956). The experiment can be described thus: surface plasmon resonance. It counts as binding.
The target in experiment [2] is T1, SIRT1 (Homo sapiens, UniProt Q96EB6).
T1 sequence (Q96EB6 2-747): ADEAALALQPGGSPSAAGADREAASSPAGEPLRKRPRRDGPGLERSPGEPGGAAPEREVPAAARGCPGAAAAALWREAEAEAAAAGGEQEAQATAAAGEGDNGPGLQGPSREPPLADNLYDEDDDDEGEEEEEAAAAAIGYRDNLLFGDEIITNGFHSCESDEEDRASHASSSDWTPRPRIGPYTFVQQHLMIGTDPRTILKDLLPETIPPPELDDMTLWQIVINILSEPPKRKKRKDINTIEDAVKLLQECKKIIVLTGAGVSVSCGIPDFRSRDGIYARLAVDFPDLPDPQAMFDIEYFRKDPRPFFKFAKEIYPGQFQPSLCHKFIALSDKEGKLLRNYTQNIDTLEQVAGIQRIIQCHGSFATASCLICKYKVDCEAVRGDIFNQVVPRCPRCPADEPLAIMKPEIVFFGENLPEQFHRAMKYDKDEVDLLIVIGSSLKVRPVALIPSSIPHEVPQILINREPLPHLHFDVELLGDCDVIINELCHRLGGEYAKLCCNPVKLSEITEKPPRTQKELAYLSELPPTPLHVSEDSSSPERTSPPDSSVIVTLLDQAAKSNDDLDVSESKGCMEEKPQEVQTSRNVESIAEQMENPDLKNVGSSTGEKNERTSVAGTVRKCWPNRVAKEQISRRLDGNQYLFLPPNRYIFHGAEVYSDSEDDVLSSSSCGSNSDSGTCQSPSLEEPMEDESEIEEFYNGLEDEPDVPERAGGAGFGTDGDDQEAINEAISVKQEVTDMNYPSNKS
The experiment can be described thus: cell-free SIRT1 FRET-based screening assay. It counts as biochemical.

Chain of Ku70 (P12956 2-609): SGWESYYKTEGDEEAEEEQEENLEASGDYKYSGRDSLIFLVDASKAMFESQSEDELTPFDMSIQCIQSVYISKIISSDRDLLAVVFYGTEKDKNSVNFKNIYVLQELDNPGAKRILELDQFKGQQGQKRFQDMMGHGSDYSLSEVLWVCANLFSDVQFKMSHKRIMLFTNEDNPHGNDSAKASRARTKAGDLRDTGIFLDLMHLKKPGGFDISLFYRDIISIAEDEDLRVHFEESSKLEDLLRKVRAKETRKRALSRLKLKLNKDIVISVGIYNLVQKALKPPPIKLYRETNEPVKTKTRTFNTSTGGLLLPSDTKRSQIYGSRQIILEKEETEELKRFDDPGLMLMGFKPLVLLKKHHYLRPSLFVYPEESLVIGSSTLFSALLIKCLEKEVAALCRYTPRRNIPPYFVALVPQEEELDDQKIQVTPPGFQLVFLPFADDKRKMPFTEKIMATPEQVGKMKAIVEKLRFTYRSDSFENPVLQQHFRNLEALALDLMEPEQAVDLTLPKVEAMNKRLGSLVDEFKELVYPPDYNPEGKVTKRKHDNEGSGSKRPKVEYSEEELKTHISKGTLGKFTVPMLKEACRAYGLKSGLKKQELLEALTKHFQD

MI-319 yielded a Kd in experiment [1] of 0.17 µM.

Take `COc1ccc(C2=NC(c3ccc(Cl)cc3)C(c3ccc(Cl)cc3)N2C(=O)N2CCNC(=O)C2)c(OC(C)C)c1` (racemic) [Nutlin-3, (±)-4-[4,5-Bis(4-chlorophenyl)-2-(2-isopropoxy-4-methoxy-phenyl)-4,5-dihydro-imidazole-1-carbonyl]-piperazin-2-one]: the “cell-free SIRT1 FRET-based screening assay (Cayman kit), 15 μM” value in experiment [2] is “MI-219, MI-319 and Nutlin-3 significantly suppressed SIRT1 activity while the inactive analog MI-10 did not”. In experiment [1], the Kd stood at 169 µM.
